Key:
VEGFR II (KDR kinase) = VEGFR II (KDR kinase) (Homo sapiens, UniProt P35968); assay: Inhibition of KDR kinase activity (33P-ATP, poly-(Glu4Tyr) filter assay); type: biochemical; details: 10 minutes at room temperature; poly-(Glu4Tyr) substrate
Procedure: Solutions Required for the Tests
Stock solution A: 3mM ATP in water pH 7.0 (−70° C.)
Stock solution B: g-33P-ATP 1 mCi/100 μl
Stock solution C: poly-(Glu4Tyr) 10 mg/ml in water
Substrate solvent: 10 mM DTT, 10 mM manganese chloride 100 mM magnesium chloride
Enzyme solution: 120 mM Tris/HCl, pH 7,5,10 μM sodium vanadium oxide
Inhibition of KDR- and FLT-1 kinase activity in the presence of the compounds according to the invention
10 μl of substrate mix [10 μl vol ATP stock solution A+25 μCi g-33P-ATP (ca. 2.5 μl of stock solution B)+30 μl poly-(Glu4Tyr) stock solution C+1.21 ml substrate solvent], 10 μl inhibitor solution [substances corresponding to the dilutions, as a control 3% DMSO in substrate solvent] and 10 μl enzyme solution [11.25 μg enzyme stock solution (KDR or FLT-1 kinase) are diluted at 4° C. in 1.25 ml enzyme solution], are added to a tapering microtitre plate (without protein binding). The mixture is mixed thoroughly and incubated for 10 minutes at room temperature. Subsequently, 10 μl of stop solution (250 mM EDTA, pH 7.0) is added, mixed and 10 μl of the solution transferred to a P 81 phosphocellulose filter. It is subsequently washed several times in 0.1 M phosphoric acid. The filter paper is dried, coated with MeltiLex and measured in a MicroBeta counter.
The IC50 values are determined from the concentration of inhibitor required to inhibit the phosphate incorporation to 50% of the uninhibited incorporation after deducting the reference value (EDTA-stopped reaction).

Sequence of VEGFR II (KDR kinase) (P35968 20-1356): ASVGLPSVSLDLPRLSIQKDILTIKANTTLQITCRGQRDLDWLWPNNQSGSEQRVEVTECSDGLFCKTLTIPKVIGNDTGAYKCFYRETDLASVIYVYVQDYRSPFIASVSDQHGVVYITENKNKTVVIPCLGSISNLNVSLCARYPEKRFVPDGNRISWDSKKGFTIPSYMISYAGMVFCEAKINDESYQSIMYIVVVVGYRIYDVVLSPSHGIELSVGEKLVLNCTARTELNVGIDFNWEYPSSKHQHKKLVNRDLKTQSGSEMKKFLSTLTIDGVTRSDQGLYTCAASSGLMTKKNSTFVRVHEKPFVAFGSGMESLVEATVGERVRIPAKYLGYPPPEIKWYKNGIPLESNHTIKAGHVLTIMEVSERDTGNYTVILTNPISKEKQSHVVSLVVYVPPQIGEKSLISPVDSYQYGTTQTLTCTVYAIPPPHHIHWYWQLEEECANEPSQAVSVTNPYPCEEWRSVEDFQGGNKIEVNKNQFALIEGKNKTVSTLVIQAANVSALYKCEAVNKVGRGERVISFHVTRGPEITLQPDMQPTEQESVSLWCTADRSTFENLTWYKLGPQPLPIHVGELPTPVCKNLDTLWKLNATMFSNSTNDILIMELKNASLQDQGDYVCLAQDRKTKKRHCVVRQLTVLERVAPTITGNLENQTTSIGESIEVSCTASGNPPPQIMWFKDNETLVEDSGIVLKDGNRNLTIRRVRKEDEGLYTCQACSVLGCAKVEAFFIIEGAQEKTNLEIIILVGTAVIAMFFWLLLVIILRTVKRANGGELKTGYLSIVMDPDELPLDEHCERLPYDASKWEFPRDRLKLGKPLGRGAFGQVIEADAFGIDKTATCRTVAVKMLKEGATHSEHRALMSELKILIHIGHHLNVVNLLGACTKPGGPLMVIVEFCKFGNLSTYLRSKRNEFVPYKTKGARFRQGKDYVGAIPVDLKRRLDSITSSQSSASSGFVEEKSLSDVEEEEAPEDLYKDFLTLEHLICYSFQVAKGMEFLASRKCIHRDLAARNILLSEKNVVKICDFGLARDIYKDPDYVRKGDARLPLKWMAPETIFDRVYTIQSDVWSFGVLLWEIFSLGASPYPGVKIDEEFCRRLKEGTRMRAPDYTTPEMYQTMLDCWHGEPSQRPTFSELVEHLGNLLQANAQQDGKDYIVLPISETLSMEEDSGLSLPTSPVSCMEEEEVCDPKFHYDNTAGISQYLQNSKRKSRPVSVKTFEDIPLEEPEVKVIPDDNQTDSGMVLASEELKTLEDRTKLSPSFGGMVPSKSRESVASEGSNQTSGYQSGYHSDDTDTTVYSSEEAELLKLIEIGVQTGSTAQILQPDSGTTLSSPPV

IC50 (VEGFR II (KDR kinase))	melting point	Compound
80 nM	103 to 104 °C	O=C(NC1CCCCCCC1)c1ccccc1NCc1ccncc1 [Example 1.4]
39 nM	118.4 °C	CC(C)(C)[C@H]1CC[C@H](NC(=O)c2ccccc2NCc2ccncc2)CC1 [Example 1.8]
200 nM		CCCCCCCCCCNC(=O)c1ccccc1NCc1ccncc1 [Example 1.14]
50 nM		CC(C)(C)CCNC(=O)c1ccccc1NCc1ccncc1 [Example 1.19]
500 nM		CC(C)CC(C)NC(=O)c1ccccc1NCc1ccncc1 (stereo not drawn) [Example 1.23]
1000 nM	65.2 °C	O=C(NCCN1CCCCC1)c1ccccc1NCc1ccncc1 [Example 1.27]

Reference: patent US20050054692A1, “Azanthranylalkyl and -cycloalkyl amides and their use as VEGF receptor inhibitors” (priority 2000, published 2005)
